Experimental data published in patent US9974849B2, “Human Papilloma virus therapeutic vaccine” (The Board of Trustees of the University of Arkansas, priority 2013, dated 2018).

Experiments:
[1] = Solubilizing HPV E6 peptides in buffer; assay type: physicochemical
Protocol: We attempted to make a pharmaceutical formulation with four HPV E6 peptides. The 4 peptides were peptides consisting of residues 1-45, 46-80, 81-115, and 116-158 of SEQ ID NO:1. Each of the peptides was amidated at its carboxyl terminus and acetylated at its amino terminus. The peptides were each chemically synthesized.
For the pharmaceutical formulation, this was mixed with trehalose as a stabilizing agent and glycine as tonicity modifier. The final concentrations of the formulation were 10 mM glutamate, 1.0% w/v trehalose, 2.0% w/v glycine, and 0.714 mg/ml each of the four peptides.

[2] = tested on: CD3 T cells co-cultured with autologous LCs; experiment: T cell proliferation induced by treated LCs (alamarBlue); assay type: cell-based, human; settings: 7 days co-culture

Ac-SEYRHYCYSLYGTTLEQQYNK PLCDLLIRCINCQK-NH2 [E6 81-115]
Solubility ([1]; added to 10 mM glutamate, pH 4.0 solution already containing solubilized E6 1-45, E6 46-80, E6 116-158, 5 mg/ml for each of the four peptides): could be solubilized and will stay soluble
Solubility ([1]; alone, in any suitable buffer for manufacturing): insoluble

tetanus toxoid
Subjects with measurable proliferation (increased fluorescence of ≥5000) [2]: subjects 2 and 5
T-cell proliferation ([2]; over media): no significant increase over media
